In the NIST ThermoML archive (doi:10.1021/acs.jced.9b00152):

Tests used:
[1] = Liquid, Ebulliometric method (Recirculating still)
[2] = Boiling temperature at pressure P; settings: Liquid, Ebulliometric method (Recirculating still)

CCCOC(C)=O [propyl ethanoate]
Settings | Boiling temperature at pressure P [°C] | vapor or sublimation pressure [kPa]
[1], 329.58 K | – | 20
[1], 347.21 K | – | 40
[1], 358.6 K | – | 60
[1], 367.13 K | – | 80
[1], 374.66 K | – | 101.3
[2], 14.9 kPa | 49.47 | –
[2], 16.6 kPa | 51.86 | –
[2], 18.56 kPa | 54.62 | –
[2], 20 kPa | 56.43 | –
[2], 24.75 kPa | 61.56 | –
[2], 27.99 kPa | 64.63 | –
[2], 33.06 kPa | 68.81 | –
[2], 37.76 kPa | 72.40 | –
[2], 40.07 kPa | 74.06 | –
[2], 44.38 kPa | 76.90 | –
[2], 48.69 kPa | 79.58 | –
[2], 54.33 kPa | 82.51 | –
[2], 60.03 kPa | 85.5 | –
[2], 66.87 kPa | 88.7 | –
[2], 73.94 kPa | 91.7 | –
[2], 79.95 kPa | 93.98 | –
[2], 85.25 kPa | 95.92 | –
[2], 91.51 kPa | 98.26 | –
[2], 101.26 kPa | 101.51 | –

CC(=O)OC(C)C [1-methylethyl ethanoate]
[1]
Settings | vapor or sublimation pressure [kPa]
317.77 K | 20
334.75 K | 40
345.94 K | 60
354.29 K | 80
361.79 K | 101.3

CC(=O)O [acetic acid]
Settings | Boiling temperature at pressure P [°C] | vapor or sublimation pressure [kPa]
[1], 345.03 K | – | 20
[1], 363.04 K | – | 40
[1], 374.54 K | – | 60
[1], 383.32 K | – | 80
[1], 390.93 K | – | 101.3
[2], 17 kPa | 68.2 | –
[2], 18.47 kPa | 69.72 | –
[2], 20.01 kPa | 71.88 | –
[2], 21.29 kPa | 73.26 | –
[2], 23.18 kPa | 75.34 | –
[2], 24.92 kPa | 77.20 | –
[2], 27.44 kPa | 79.73 | –
[2], 29.78 kPa | 81.86 | –
[2], 32.78 kPa | 84.39 | –
[2], 34.97 kPa | 86.11 | –
[2], 39.99 kPa | 89.89 | –
[2], 48.99 kPa | 95.41 | –
[2], 55.76 kPa | 99.12 | –
[2], 60.04 kPa | 101.39 | –
[2], 64.44 kPa | 103.51 | –
[2], 69.39 kPa | 105.90 | –
[2], 75.23 kPa | 108.5 | –
[2], 79.98 kPa | 110.17 | –
[2], 83.66 kPa | 111.67 | –
[2], 87.18 kPa | 112.92 | –
[2], 97.08 kPa | 116.43 | –
[2], 101.3 kPa | 117.78 | –
